“Also recorded” adds a separate entry of the source.
Key:
[1] = system: HT-1080 human fibrosarcoma cell line; experiment: Cytotoxicity on the cells culture HT1080; assay type: cell-based; conditions: TiO2 or SiO2 600 mcg/ml, cyclodextrin 5000 mcg/ml, Doxorubicin 200 mcg/ml
Procedure: In these studies cells (5×10^4) were seeded in 6-well plates and cultured in RPMI-1640 medium containing 10% fetal bovine serum. The cultures were incubated for 2 hours in CO2 thermostate at 37° C. After the preincubation period the medium was removed, the cells were washed with physiological saline (2×1 ml 0.9% NaCl) and exposed to testing samples applying various concentrations for 60 min. After removing the test compounds fresh RPMI 1640 medium containing 10% FBS was added and the cultures were incubated for further 24 hours at 37° C. in humidified thermostate (5% CO2). At the end of the posttreatment period the medium as supernatants of the cultures, containing released cells was removed and saved for cell counting.

human tumour cell lines = experiment: Cytotoxicity and cytomorphology of test substances, conclusions (cell line not given); conditions: Doxorubicin 0.2 mg/ml; HPBCD 5 mg/ml
Caenorhabditis elegans = experiment: Life duration of Caenorhabditis elegans on NGM plates; assay type: in vivo
Procedure: ADAM QD/T, TiO2 aqueous nanodispersion used for researches on the animals, was sterile nanodispersion, of pharmaceutical class, in concentration 0.6 mg/ml. • 2. […] SBECD, Sulfobutylated beta-cyclodextrin sodium salt, Budapest, Hungary DEXOLVE® pharma grade (DS 6.5), powder in concentration 0.3 mg/ml. Protocol of researches and step-by-step methodology: • embryos were isolated (synchronization) • larvae of identical phase (L4) were placed on the standard NGM (nematode growth medium) […] plates in the Petri dishes. • all the animals were in the age from first up to ninth day of life and lived in a medium containing the above-listed components, after ninth day they were placed in standard […] without other additions as FUDR. • deaths of the animals were constantly registered as a time function • the curves of life duration were created on the basis of read indications. Composition of NGM plates (all the chemical compounds and reagents of analytical class); NaCl, agar, peptone, 5 mg/ml cholesterol in ethanol, non-autoclaved, 1 M K3PO4 buffer pH 6.0 (108.3 g KH2PO4, 35.6 g K2HPO4, H2O for 1 liter), 1M MgSO4, Petri dishes, peristaltic pump. The results present average of three parallel, independent definitions, research cycles of C. elegans.

Row | Molecule | Cytotoxicity [1] | Cytotoxicity (human tumour cell lines) | Number of living C. elegans (%) (Caenorhabditis elegans; life duration 10 days) | Number of living C. elegans (%) (Caenorhabditis elegans; life duration 13 days) | Number of living C. elegans (%) (Caenorhabditis elegans; life duration 14 days) | Number of living C. elegans (%) (Caenorhabditis elegans; life duration 15 days) | Number of living C. elegans (%) (Caenorhabditis elegans; life duration 18 days)
1 | COc1cccc2c1C(=O)c1c(O)c3c(c(O)c1C2=O)C[C@@](O)(C(=O)CO)C[C@@H]3O[C@H]1C[C@H](N)[C@H](O)[C@H](C)O1 [Doxorubicin] | evident cytotoxicity; also recorded: significant cytotoxicity | moderate cytotoxicity |  |  |  |  | 
2 | Sulfobutylated beta-cyclodextrin sodium salt [SBECD] |  |  | 90 | 41 | 20 | 7 | 0

From US20240325419A1, “PHARMACEUTICAL COMPOSITION FOR RESTORING PHYSIOLOGICAL PROCESSES AND CELLS OF ORGANISM” (priority 2022, published 2024)
